In brackets after ≈: the same amount, converted by molar mass.
Tests used:
[1] = tested on: Methicillin-resistant Staphylococcus aureus ATCC 43300; assay: In vitro MIC, broth microdilution, MRSA; type: cell-based; details: 5 × 10^5 CFU/mL, 16 h at 37 °C, read-out: MIC, Gram-positive bacteria, MRSA
Method: (§1) The 15 final hit compounds were purchased and screened for preliminary in vitro antibacterial activity against our five ATCC-bacterial strain panel (Staphylococcus aureus ATCC 29213, Methicillin-resistant Staphylococcus aureus ATCC 43300, E. coli ATCC 25922, Pseudomonas aeruginosa ATCC 27853 and Klebsiella pneumoniae ATCC 700603) by using the standard broth dilution method. […] All of the 15 final hit compounds were tested against HEK293 cell lines to avoid potential cytotoxicity of normal human cells. […] Further chemical optimization is being performed to better understand the key residues for activity and selectivity.
(§2) MICs were determined using a microdilution method with Muellere Hinton Broth (MHB) for Staphylococci and Lennox Broth (LB) for Enterococci, following the National Committee for Clinical Laboratory Standards (NCCLS) (now called the Clinical Laboratory Standards Institute [CLSI]). The stock solutions of the test compounds were diluted to give a two-fold series, with final chemical concentrations ranging from […].

[2] = tested on: Escherichia coli ATCC 25922; assay: In vitro MIC, broth microdilution, E. coli; type: cell-based; details: ATCC25922, 5 × 10^5 CFU/mL, 16 h at 37 °C, read-out: MIC, Gram-negative bacteria, E. coli
Method: as §1, §2

[3] = tested on: Staphylococcus aureus ATCC 29213; assay: In vitro MIC, broth microdilution, S. aureus; type: cell-based; details: ATCC29213, 5 × 10^5 CFU/mL, 16 h at 37 °C, read-out: MIC, Gram-positive bacteria, S. aureus
Method: as §1, §2

[4] = In vitro cytotoxicity assay (MTT); type: cell-based, Human; details: human; HEK293 cells; 48 h; MTT
Method: as §1
(§3) Human Embryonic Kidney 293 cell line (HEK293) was acquired from ATCC. The cells were cultured in DMEM medium (Gibco-BRL, Invitrogen Co. Ltd., Carlsbad, CA, USA) supplemented with 10% (v/v) fetal bovine serum plus 100 μg/mL amikacin. The cells were maintained in a 37 °C humidified incubator with 5% CO2 atmosphere. Analysis of in vitro cytotoxicity was performed in the presence of compounds or blank solvent on cell lines seeded in 96-well plates at the density of 2 × 10^3 cells/well in serum-containing media. After 24 h incubation at 37 °C, the cells were treated with different concentrations of compounds along with a blank solvent. The cells were incubated in these conditions for 48 h. The cell viability was assessed with the 3-(4,5-dimethylthiazol-2-yl)-2,5-diphenyltetrazolium bromide (MTT) method, as previously described.

[5] = tested on: Klebsiella pneumoniae ATCC 700603; assay: In vitro MIC, broth microdilution, K. pneumoniae; type: cell-based; details: ATCC700603, 5 × 10^5 CFU/mL, 16 h at 37 °C, read-out: MIC, Gram-negative bacteria, K. pneumoniae
Method: as §1, §2

[6] = tested on: Pseudomonas aeruginosa ATCC 27853; assay: In vitro MIC, broth microdilution, P. aeruginosa; type: cell-based; details: ATCC27853, 5 × 10^5 CFU/mL, 16 h at 37 °C, read-out: MIC, Gram-negative bacteria, P. aeruginosa
Method: as §1, §2

[7] = tested on: HEK293 cells; assay: In vitro cytotoxicity assay (MTT); type: cell-based, Human
Method: as §1, §3

Row | MIC [1] [µg/mL] | MIC [2] [µg/mL] | MIC [3] [µg/mL] | MIC [5] [µg/mL] | MIC [6] [µg/mL] | SMILES | IC50 at 48 h [4] [µM] | Cytotoxicity to HEK293 cells (in words) [7]
1 | 64 (≈ 142 µM) | 64 (≈ 142 µM) | 32 (≈ 71.2 µM) | 64 (≈ 142 µM) | 32 (≈ 71.2 µM) | COc1cc(CNCCc2ccc(S(N)(=O)=O)cc2)ccc1OCC(=O)NC(C)(C)C [ZINC19922703] | > 20 | –
2 | 64 (≈ 156 µM) | 64 (≈ 156 µM) | 32 (≈ 78 µM) | 64 (≈ 156 µM) | 64 (≈ 156 µM) | COc1ccc(C(=O)N2CCN(CCNC(=O)C(=O)Nc3ccccc3)CC2)cc1 [ZINC04380079] | 6.84 | –
3 | 16 (≈ 41.1 µM) | 8 (≈ 20.5 µM) | 4 (≈ 10.3 µM) | 32 (≈ 82.2 µM) | 16 (≈ 41.1 µM) | CNC(=O)NC(=O)CSc1nc2sc(-c3ccccc3)cc2c(=O)n1N [ZINC02181060] | 15.4 | –
4 | 32 (≈ 72.1 µM) | 64 (≈ 144 µM) | 32 (≈ 72.1 µM) | 64 (≈ 144 µM) | 64 (≈ 144 µM) | CC1CCCc2sc3nc(SCC(=O)NC(=O)Nc4ccccc4)n(N)c(=O)c3c21 (centres unmarked) [ZINC19797059] | > 20 | –
5 | 64 (≈ 173 µM) | 32 (≈ 86.6 µM) | 32 (≈ 86.6 µM) | 64 (≈ 173 µM) | 16 (≈ 43.3 µM) | Cc1ccc2ccc([C@H](Nc3ccccn3)c3ccc(C)c(C)c3)c(O)c2n1 [ZINC02086896] | 3.15 | –

The next lines start with the compound.

Row | SMILES | MIC [1] [µg/mL] | MIC [2] [µg/mL] | MIC [3] [µg/mL] | MIC [5] [µg/mL] | MIC [6] [µg/mL] | IC50 at 48 h [4] [µM] | Cytotoxicity to HEK293 cells (in words) [7]
6 | CCCC[n+]1c(N)c(C(=O)NCc2ccc(C)cc2)cc2c(=O)n3cccc(C)c3nc21 [ZINC02424508] | 32 | 16 | 16 | 64 | 64 | > 20 | –
7 | CN(C)CCCNC(=O)c1ccccc1NC(=O)c1ccc(-c2ccccc2)cc1 [ZINC10312776] | 64 (≈ 159 µM) | 64 (≈ 159 µM) | 64 (≈ 159 µM) | 32 (≈ 79.7 µM) | 16 (≈ 39.8 µM) | > 20 | –
8 | O=C(NCCN1CCN(C(=O)c2ccc(Cl)cc2Cl)CC1)C(=O)Nc1ccc(Br)cc1 [ZINC08451958] | 32 (≈ 60.6 µM) | 64 (≈ 121 µM) | 32 (≈ 60.6 µM) | 64 (≈ 121 µM) | 64 (≈ 121 µM) | > 20 | –
9 | CCCCCCCC[n+]1cccc(C(=O)N2CCNc3nc(NC(=O)C(C)C)[nH]c(=O)c32)c1 [ZINC08384332] | 32 | 32 | 32 | 64 | 16 | > 20 | –
10 | Cc1ccc2c(c1)c1c3n2CCN(CC(=O)CNNC(=O)c2ccccc2)C3CCC1 (centres unmarked) [ZINC08430843] | 32 (≈ 76.8 µM) | 64 (≈ 154 µM) | 16 (≈ 38.4 µM) | 64 (≈ 154 µM) | 32 (≈ 76.8 µM) | > 20 | –
11 | CC1CCCc2sc3c(=O)n(N)c(SCC(=O)NC(=O)Nc4ccccc4)nc3c21 (centres unmarked) [ZINC19797060] | 64 (≈ 144 µM) | 64 (≈ 144 µM) | 32 (≈ 72.1 µM) | 64 (≈ 144 µM) | 16 (≈ 36.1 µM) | > 20 | –
12 | Cc1ccccc1C(=O)N1CCN(CCNC(=O)C(=O)Nc2ccc(Br)cc2)CC1 [ZINC08452043] | 16 (≈ 33.8 µM) | 16 (≈ 33.8 µM) | 8 (≈ 16.9 µM) | 32 (≈ 67.6 µM) | 8 (≈ 16.9 µM) | 10.2 | –
13 | CCc1ccc(NC(=O)C(=O)NCCN2CCN(C(=O)c3ccc(Cl)cc3Cl)CC2)cc1 [ZINC06843697] | 4 (≈ 8.38 µM) | 16 (≈ 33.5 µM) | 4 (≈ 8.38 µM) | 64 (≈ 134 µM) | 8 (≈ 16.8 µM) | > 20 | non-cytotoxicity
14 | CC1(C)Cc2c(ccc3ccccc23)C(NNC(=O)c2cccc(N)c2)=N1 [ZINC00729256] | 16 (≈ 44.6 µM) | 32 (≈ 89.3 µM) | 8 (≈ 22.3 µM) | 16 (≈ 44.6 µM) | 4 (≈ 11.2 µM) | > 20 | non-cytotoxicity
15 | Cc1sc(NC(=O)c2ccco2)c(C(Nc2ccccn2)c2ccccc2)c1C (centres unmarked) [ZINC02709613] | 64 (≈ 159 µM) | 64 (≈ 159 µM) | 64 (≈ 159 µM) | 64 (≈ 159 µM) | 16 (≈ 39.7 µM) | > 20 | –

Reference: paper PMC3742241, “Novel Hybrid Virtual Screening Protocol Based on Molecular Docking and Structure-Based Pharmacophore for Discovery of Methionyl-tRNA Synthetase Inhibitors as Antibacterial Agents” (International Journal of Molecular Sciences, 2013)
